In patent publication US11505523B2, “HDAC8 inhibitors for treating cancer” (City of Hope, priority 2013, dated 2022):

Experiments:
[1] = tested on: p53 target genes in normal CD34^+ cells; assay: qRT-PCR of p53 target genes in normal CD34+ cells; format: cell-based, human; details: similar treatment
Excerpt: (§1) FIGS. 5A-5G. […] FIG. 5A: Relative expression level of HDAC8 in normal (NL) PBSC (n=7) or inv(16)^+ AML (n=7) CD34^+ cells determined by qRT-PCR. Levels of HDAC8 expression were normalized to levels of ACTB in each sample. Dashed line indicates the average of all NL PBSC samples (set to an arbitrary value of 1). […] Each dot represents an individual subject and lines indicate mean±SEM. * P<0.05; ** P<0.01; *** P<0.001. […] Each dot represents an individual patient and lines indicate mean±SEM. * P<0.05; ** P<0.01; *** P<0.001. […] Levels of β-actin were detected as loading control. Shown are representative results from four patients. […] Each dot represents an individual subject and lines indicate mean±SEM. Dash line indicates levels in vehicle treated cells. * P<0.05; ** P<0.01; *** P<0.001. […] Each dot represents an individual patient and lines indicate mean±SEM.

[2] = tested on: normal CD34^+ cells; assay: Apoptosis/cytotoxicity in normal CD34+ cells
Excerpt: Given that the frequency of TP53 mutation is relatively low in AML, altered post-translational modification by HDAC8 could represent an alternative p53-inactivating mechanism and contribute to drug resistance of AML stem cells. We first examined the expression of HDAC8 in CD34^+ stem and progenitor cells isolated from patients with inv(16)^+ AML compared to normal mobilized peripheral blood stem cells (PBSC).

[3] = molecular target: HDAC4 (Homo sapiens (Human), UniProt P56524); assay: Inhibition of purified HDAC4; details: read-out: HDAC 4 IC50; class II
[4] = tested on: MOLM13 cells; assay: Proliferation of MOLM13 cells, luminescent cell viability assay; format: cell-based, human; details: 48-hr, luminescent cell viability assay; read-out: MOLM13 Proliferation IC50
[5] = tested on: p53 target genes in pre-leukemic and leukemic progenitor cells expressing CM; details: 10 μM, 16 h, qRT-PCR
Excerpt: Relative expression of each target gene was normalized to levels of Hprt. Shown are fold activation compared to levels in vehicle treated cells (dashed line). Results represent the mean±SD.
We next examined whether enhanced p53 acetylation translate into increased p53 transcriptional activity. Using qRT-PCR assay, we accessed induction of p53 target genes in CM-ΔC95, CM, and CBFβ expressing cells upon IR (3Gy).

[6] = molecular target: HDAC3 (Homo sapiens (Human), UniProt O15379); assay: Inhibition of purified HDAC3; details: read-out: HDAC 3 IC50; class I
[7] = molecular target: HDAC6 (Homo sapiens (Human), UniProt Q9UBN7); assay: Inhibition of purified HDAC6; details: read-out: HDAC 6 IC50; class II
[8] = tested on: CL1-5 cells; assay: Cytotoxicity / anti-proliferative activity in CL1-5 lung cancer cells
[9] = molecular target: HDAC2 (Homo sapiens (Human), UniProt Q92769); assay: Inhibition of purified HDAC2; details: read-out: HDAC 2 IC50; class I
[10] = tested on: CM-p53 protein complex; assay: Interaction of CM with p53 under HDAC8i treatment; format: cell-based
Excerpt: Cells were lysed in RIPA buffer containing protease inhibitor cocktail (Roche) and MG132. Antibodies used for IP were conjugated with protein A/G beads using the antibody cross-linking kit (Pierce Biotechnology, Rockford, Ill.) following manufacturer's protocol. For Western blot, proteins were resolved in 10% SDS-PAGE. The antibodies used induced anti-FLAG (Sigma), anti-HDAC8, anti-CBFβ (Santa Cruz), anti-p53 (DO-1), anti-Ac-p53 (K379) (Cell Signaling), anti-p53 (Cell signaling) and anti-β-actin (Sigma). Horseradish peroxidase-conjugated anti-rabbit or anti-mouse secondary antibodies (Jackson ImmunoResearch, West Grove Pa.) were used, followed by detection using the SuperFemto kit (Pierce Biotechnology, Rockford, Ill.).
Class 1 HDACs, including HDAC1, HDAC2, and HDAC3, reportedly could inhibit p53 activity by deacetylating p53 [41-43]. […] To test this, we used lentivirus (pLKO. 1) mediated expression of 2 independent small-hairpin (sh)-RNA sequences against Hdac8 to specifically knock-down Hdac8 in 32D-CM cells. Cells were exposed to IR (3Gy) and analyzed for levels of p53 acetylation 6 h after.

[11] = tested on: Cl1-1 cells; assay: Cytotoxicity / anti-proliferative activity in CL1-1 lung cancer cells; details: read-out: Cytotoxicity IC50 Cl1-1; mean SD of three determinations
[12] = tested on: p53 target genes in inv(16)^+ AML CD34^+ cells; assay: qRT-PCR of p53 target genes in inv(16)+ AML CD34+ cells; format: cell-based, human; details: 10 μM, 16 h
Excerpt: as §1

[13] = tested on: Ac-p53 (K382) in inv(16)^+ AML CD34^+ cells; assay: Western blot of Ac-p53 (K382) in inv(16)+ AML CD34+ cells; details: 6 h
Excerpt: We therefore tested whether inhibiting HDAC8 deacetylase activity in inv(16)^+ AML CD34^+ cells could similarly lead to increased p53 acetylation and transcriptional activity.

Sequence of HDAC2 (Q92769 whole entry, species assumed): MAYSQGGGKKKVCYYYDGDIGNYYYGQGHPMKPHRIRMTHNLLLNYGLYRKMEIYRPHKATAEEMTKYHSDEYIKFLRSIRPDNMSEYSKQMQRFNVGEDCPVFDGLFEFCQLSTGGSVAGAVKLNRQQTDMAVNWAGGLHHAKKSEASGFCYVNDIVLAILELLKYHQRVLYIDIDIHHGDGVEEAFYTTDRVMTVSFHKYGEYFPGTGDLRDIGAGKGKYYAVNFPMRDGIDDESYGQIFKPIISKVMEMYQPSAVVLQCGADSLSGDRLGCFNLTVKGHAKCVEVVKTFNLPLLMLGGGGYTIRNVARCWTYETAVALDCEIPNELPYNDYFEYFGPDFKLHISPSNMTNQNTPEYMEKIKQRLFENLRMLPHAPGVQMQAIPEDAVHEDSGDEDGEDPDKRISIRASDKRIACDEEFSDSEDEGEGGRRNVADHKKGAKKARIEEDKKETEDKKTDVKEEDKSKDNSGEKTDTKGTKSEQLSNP
Sequence of HDAC4 (P56524 whole entry, species assumed): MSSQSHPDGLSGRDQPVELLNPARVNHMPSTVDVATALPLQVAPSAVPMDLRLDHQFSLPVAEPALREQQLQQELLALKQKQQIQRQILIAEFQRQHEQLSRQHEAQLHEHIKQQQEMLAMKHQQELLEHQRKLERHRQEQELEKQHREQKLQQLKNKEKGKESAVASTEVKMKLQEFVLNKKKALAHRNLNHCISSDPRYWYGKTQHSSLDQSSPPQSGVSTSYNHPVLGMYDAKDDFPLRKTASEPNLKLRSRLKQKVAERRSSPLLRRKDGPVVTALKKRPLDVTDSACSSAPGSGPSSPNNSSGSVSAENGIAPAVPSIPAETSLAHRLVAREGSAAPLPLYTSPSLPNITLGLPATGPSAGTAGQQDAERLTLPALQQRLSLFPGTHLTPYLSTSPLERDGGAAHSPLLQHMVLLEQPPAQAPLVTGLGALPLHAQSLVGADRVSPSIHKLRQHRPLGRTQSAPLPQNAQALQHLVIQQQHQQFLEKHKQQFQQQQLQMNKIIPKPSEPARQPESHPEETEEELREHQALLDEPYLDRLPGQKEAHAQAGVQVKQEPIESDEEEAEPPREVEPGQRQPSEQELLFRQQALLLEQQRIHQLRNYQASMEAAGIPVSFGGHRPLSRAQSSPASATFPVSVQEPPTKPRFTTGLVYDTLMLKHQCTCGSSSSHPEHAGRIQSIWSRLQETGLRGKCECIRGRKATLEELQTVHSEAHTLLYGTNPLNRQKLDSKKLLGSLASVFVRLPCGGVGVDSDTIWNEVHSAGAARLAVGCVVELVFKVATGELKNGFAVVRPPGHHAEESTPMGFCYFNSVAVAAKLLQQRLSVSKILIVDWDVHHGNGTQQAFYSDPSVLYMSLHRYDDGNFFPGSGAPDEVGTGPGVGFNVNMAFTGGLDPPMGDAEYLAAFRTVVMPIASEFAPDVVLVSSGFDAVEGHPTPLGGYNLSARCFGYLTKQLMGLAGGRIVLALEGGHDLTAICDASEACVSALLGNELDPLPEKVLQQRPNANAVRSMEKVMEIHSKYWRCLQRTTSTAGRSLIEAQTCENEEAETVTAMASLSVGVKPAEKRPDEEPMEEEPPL
Sequence of HDAC3 (O15379 whole entry, looked up, species assumed): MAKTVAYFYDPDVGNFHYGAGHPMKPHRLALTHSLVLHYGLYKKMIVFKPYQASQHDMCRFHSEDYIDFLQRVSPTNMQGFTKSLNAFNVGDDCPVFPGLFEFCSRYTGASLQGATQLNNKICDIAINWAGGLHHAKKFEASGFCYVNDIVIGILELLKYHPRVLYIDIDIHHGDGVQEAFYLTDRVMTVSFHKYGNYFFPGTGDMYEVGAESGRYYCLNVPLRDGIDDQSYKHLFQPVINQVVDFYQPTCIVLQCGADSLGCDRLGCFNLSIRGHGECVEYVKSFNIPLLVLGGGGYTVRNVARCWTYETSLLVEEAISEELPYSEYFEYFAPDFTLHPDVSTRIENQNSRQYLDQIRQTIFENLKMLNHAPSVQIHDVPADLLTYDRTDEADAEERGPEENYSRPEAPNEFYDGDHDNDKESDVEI
Sequence of HDAC3 (Q9Y618 whole entry partner, looked up, species assumed): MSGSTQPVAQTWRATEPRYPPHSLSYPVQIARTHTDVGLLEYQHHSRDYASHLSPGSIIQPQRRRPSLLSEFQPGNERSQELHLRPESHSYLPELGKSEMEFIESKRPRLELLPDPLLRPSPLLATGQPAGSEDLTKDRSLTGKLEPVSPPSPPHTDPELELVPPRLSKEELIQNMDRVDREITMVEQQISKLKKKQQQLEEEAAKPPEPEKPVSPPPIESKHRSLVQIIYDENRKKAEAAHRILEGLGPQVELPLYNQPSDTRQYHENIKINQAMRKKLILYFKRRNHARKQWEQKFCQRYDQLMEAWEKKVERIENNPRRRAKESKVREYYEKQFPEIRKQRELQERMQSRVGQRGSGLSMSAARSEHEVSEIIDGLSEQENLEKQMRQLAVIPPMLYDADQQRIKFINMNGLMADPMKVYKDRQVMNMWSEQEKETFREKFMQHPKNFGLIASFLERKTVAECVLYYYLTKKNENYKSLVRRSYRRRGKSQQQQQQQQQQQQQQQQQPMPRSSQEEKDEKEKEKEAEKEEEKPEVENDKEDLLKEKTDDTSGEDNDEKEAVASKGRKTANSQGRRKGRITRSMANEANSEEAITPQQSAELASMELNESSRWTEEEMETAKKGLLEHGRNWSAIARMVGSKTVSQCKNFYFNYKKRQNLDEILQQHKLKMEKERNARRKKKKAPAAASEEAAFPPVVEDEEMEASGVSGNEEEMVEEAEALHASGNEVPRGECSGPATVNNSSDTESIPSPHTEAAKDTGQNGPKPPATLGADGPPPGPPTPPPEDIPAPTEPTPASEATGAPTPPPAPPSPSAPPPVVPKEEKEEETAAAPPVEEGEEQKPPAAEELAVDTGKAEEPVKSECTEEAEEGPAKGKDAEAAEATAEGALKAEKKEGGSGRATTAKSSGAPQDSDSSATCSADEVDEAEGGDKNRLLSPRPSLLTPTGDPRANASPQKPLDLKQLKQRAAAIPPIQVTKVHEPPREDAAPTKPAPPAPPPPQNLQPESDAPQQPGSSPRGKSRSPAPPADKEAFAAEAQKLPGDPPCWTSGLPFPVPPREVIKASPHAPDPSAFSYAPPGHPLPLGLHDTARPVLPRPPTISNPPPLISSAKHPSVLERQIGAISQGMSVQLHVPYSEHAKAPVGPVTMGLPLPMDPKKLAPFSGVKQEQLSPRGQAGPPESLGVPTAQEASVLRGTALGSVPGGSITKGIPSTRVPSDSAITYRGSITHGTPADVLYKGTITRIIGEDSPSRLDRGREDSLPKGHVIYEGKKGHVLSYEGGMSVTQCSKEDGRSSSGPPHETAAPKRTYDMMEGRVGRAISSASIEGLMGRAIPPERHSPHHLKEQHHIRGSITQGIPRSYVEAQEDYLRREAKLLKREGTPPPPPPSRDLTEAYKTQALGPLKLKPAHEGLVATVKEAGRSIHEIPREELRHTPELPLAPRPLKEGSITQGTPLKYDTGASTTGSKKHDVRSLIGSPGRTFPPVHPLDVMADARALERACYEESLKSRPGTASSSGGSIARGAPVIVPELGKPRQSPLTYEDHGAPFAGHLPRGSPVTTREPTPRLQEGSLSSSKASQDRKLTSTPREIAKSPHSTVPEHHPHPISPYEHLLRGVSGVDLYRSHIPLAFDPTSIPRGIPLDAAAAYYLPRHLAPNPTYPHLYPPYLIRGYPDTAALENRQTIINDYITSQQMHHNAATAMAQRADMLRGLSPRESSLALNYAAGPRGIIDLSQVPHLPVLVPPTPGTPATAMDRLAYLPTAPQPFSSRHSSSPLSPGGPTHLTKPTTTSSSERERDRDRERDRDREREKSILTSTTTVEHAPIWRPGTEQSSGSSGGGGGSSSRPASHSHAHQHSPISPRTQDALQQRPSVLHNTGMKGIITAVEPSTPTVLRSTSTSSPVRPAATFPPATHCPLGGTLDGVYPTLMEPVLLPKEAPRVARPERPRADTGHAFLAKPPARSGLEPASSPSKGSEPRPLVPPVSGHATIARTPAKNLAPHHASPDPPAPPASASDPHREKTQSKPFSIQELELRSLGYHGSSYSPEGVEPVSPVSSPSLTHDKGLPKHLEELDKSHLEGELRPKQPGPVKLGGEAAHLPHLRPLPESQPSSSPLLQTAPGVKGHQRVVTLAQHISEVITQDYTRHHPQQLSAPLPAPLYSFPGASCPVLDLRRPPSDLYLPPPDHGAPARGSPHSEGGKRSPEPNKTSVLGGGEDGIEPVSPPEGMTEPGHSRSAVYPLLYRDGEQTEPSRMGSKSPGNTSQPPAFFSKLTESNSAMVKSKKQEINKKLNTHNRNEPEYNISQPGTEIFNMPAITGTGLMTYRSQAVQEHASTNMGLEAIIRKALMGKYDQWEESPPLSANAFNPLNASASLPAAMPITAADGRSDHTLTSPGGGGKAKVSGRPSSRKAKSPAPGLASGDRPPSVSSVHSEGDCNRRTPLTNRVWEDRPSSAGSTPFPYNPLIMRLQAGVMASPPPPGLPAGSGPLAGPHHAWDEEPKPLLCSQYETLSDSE

## COc1ccc(/C=C/C(=O)NO)c(-c2ccc(-c3ccccc3)cc2)c1 [Compound 22d, (E)-N-Hydroxy-4-methoxy-2-(biphenyl-4-yl)cinnamide]
[1]
  p53 target expression in normal CD34+ cells: no or little change in p53 target expression
[2]; based on cell origin
  difference between CD34+ cells from PBSC and CB: no significant difference
[2]; higher dose (40 μM), 48 h
  cytotoxicity in normal CD34+ cells: Modest cytotoxicity
[3]
  IC50: > 20 nM
[4]
  IC50: 2420 nM
[5]
  activation of p53 target genes in progenitor cells expressing endogenous levels of CM: induces activation of p53 targets
[6]
  IC50: 3 ± 0.1 nM
[7]
  IC50: > 20 nM
[8]; read-out: Cytotoxicity IC50 Cl1-5, mean SD of three determinations
  IC50: 7 ± 1.5 nM
[8]; result in words
  activity in CL1-5 cells: activity similar to that of SAHA
[9]
  IC50: > 20 nM
[10]
  interaction of CM with p53: did not disrupt the interaction of CM with p53
[11]
  IC50: > 10 nM
[12]
  expression of p53 target genes in inv(16)+ AML CD34+ cells: significantly induced expression of p53 target genes
[13]
  Ac-p53 (K382) level in inv(16)+ AML CD34+ cells: elevated levels of Ac-p53 (K382)
